According to paper PMC7522982, “PKIS deep dive yields a chemical starting point for dark kinases and a cell active BRSK2 inhibitor” (Scientific Reports, 2020):

Key:
PIM2 = PIM2 (Homo sapiens, UniProt Q9P1W9); parameters: purchased Eurofins; method as in earlier work; settings: cited from earlier work
NUAK1/ARK5 = NUAK1/ARK5 (Homo sapiens, UniProt O60285); test: DiscoverX scanMAX competition binding assay; parameters: purchased Eurofins DiscoverX Corporation
From the text: (§1) Based on its narrow profile when tested in the combined Nanosyn and TSA panels, GW296115 was included in the recently released Kinase Chemogenomic Set (KCGS)[15]. All of the data presented in the Introduction section was collected prior to the inclusion of GW296115 in KCGS and everything that follows has been subsequently generated. Since its inclusion in PKIS and more recently KCGS, we have carried out a broader round of screening at DiscoverX. This profiling data has not been previously released and is reported here for the first time. GW296115 was profiled against 403 wild type human kinases at 1 μM using the DiscoverX scanMAX screening platform, which employs an active site-directed competition binding assay to quantitatively measure interactions between test compounds and kinases, [16]. GW296115 inhibited 25 kinases > 90% at 1 μM, resulting in a selectivity index (S10) of 0.062 at 1 μM (Table S2, Fig. 1C)[17].
(§2) The scanMAX assays were performed at Eurofins DiscoverX Corporation as previously described.

SGK3 = SGK3 (Homo sapiens, UniProt Q96BR1); test: DiscoverX scanMAX competition binding assay; parameters: purchased Eurofins DiscoverX Corporation
From the text: as §1, §2

AXL = AXL (Homo sapiens, UniProt P30530); test: DiscoverX scanMAX competition binding assay; parameters: purchased Eurofins DiscoverX Corporation
From the text: as §1, §2

PHKG1 = PHKG1 (Homo sapiens, UniProt Q16816); test: DiscoverX scanMAX competition binding assay; parameters: purchased Eurofins DiscoverX Corporation
From the text: as §1, §2

DAPK1 = DAPK1 (Homo sapiens, UniProt P53355); test: DiscoverX scanMAX competition binding assay; parameters: purchased Eurofins DiscoverX Corporation
From the text: as §1, §2

[1] = tested on: BRSK2-induced phosphorylation; test: Western blot of BRSK2-induced phosphorylation in HEK293T cells; assay type: cell-based
From the text: With confirmed cellular activity, we next focused on characterizing the pathways mediated by BRSK2 utilizing GW296115. BRSK2 has a similar kinase domain to AMPK and is activated by LKB1-mediated phosphorylation in the active site at T174[24]–[26]. As previously reported, BRSK2 induces phosphorylation of AMPK substrates. Therefore, we asked whether this BRSK2-induced phosphorylation of AMPK substrates is ablated by GW296115. First, we evaluated the effect of GW296115 on AMPK substrate phosphorylation in HEK293T cells overexpressing wild-type or kinase-dead BRSK2 (Fig. 3B). Specifically, we overexpressed two different kinase-dead BRSK2 constructs, K48A and T174A, and treated cells with 2.5 μM of GW296115 for 2 or 6 h. Compared to cells expressing hcRED control, wild-type BRSK2 overexpression induced AMPK substrate phosphorylation, as measured by phospho-S/T AMPK substrate antibody. This change was not observed when overexpressing kinase-dead variants. BRSK2-induced AMPK substrate phosphorylation was ablated with GW269115 treatment at both 2- and 6-h time-points.
Next we evaluated whether specific bona fide AMPK substrates were phosphorylated by BRSK2. Based on the total pS/T AMPK substrate blots, we decided to check known substrates that match the size of the most robust changes due to BRSK2 overexpression. UNC51-like kinase 1 (ULK1) is a 120 kDa kinase that is member of the autophagy initiation complex, and is phosphorylated by AMPK at multiple residues, S317 and S555, among others[27]–[29]. Therefore, we overexpressed wild type BRSK2 in HEK293T cells and measured changes in pULK1 S317 and S555 following treatment with increasing doses of GW296115 for 2 h. BRSK2 overexpression increased phosphorylation of ULK1 at S317, but not S555. […] However, in samples expressing control hcRED, treatment with GW296115 increased pAMPK T172. We also asked if activating phosphorylation of ULK1 leads to increased phosphorylation of downstream components of the autophagy complex. Therefore we evaluated phosphorylation of S351 on P62 (SQSTM1), which is a stress induced autophagy receptor for ubiquitylated cargo[30]. Due to its central role as a signaling hub, P62 accumulation and phosphorylation serves as a sensor for starvation, oxidative stress, and selective autophagy[30]–[32]. […] Moreover, these phosphorylation events were ablated by GW296115 in a dose dependent manner (Fig. 4B,C).
Western blots were carried out as described previously. HEK293T cells were plated in 6-well format and incubated at 37 °C with 5% CO2 for 12 h. Next, cells were transfected with 1.5 ug of plasmid per well for 24 h and treated with GW296115 (in DMSO). Samples were lysed using standard conditions of RIPA (10% glycerol, 50 mM Tris–HCL, 100 mM NaCl, 2 mM EDTA, 0.1% SDS, 1% Nonidet P-40, and 0.2% Sodium Deoxycholate) supplemented with protease inhibitor cocktail (ThermoFisher Scientific, 78429), phosphatase inhibitor cocktail (ThermoFisher Scientific, 78426), NEM (Thermo Scientific, 23030), and Benzonase (Sigma, E1014). Lysis was carried out on ice over the course of 30 min and resultant lysates were centrifuged at 4 °C for 15 min at 21,000×g. Following normalization of protein concentration via BCA (Pierce, 23225), samples were denatured in NuPAGE LDS buffer (Invitrogen, NP0007) plus 1 mM DTT. Blots were imaged with a LiCor Odyssey imager, and then quantified using ImageStudio 5.2. Finally, ANOVA with multiple comparison was performed for quantitated blots using Prism 8.2.4.

PRKAA2 = molecular target: T1, PRKAA2 (Homo sapiens, UniProt P54646); test: DiscoverX scanMAX competition binding assay; settings: read-out: % inhibition in the DiscoverX scanMAX panel at 1 μM
T1 construct: purchased Eurofins DiscoverX Corporation
From the text: as §1
To ascertain selectivity of GW296115 and validate our DiscoverX screening results using an orthogonal assay format, we chose to utilize Eurofins enzymatic kinase assays in dose–response at the Km of ATP.
as §2

[2] = HEK293T overexpressing wild type BRSK2, increasing doses for 2 h

Chain of DAPK1 (P53355 whole entry): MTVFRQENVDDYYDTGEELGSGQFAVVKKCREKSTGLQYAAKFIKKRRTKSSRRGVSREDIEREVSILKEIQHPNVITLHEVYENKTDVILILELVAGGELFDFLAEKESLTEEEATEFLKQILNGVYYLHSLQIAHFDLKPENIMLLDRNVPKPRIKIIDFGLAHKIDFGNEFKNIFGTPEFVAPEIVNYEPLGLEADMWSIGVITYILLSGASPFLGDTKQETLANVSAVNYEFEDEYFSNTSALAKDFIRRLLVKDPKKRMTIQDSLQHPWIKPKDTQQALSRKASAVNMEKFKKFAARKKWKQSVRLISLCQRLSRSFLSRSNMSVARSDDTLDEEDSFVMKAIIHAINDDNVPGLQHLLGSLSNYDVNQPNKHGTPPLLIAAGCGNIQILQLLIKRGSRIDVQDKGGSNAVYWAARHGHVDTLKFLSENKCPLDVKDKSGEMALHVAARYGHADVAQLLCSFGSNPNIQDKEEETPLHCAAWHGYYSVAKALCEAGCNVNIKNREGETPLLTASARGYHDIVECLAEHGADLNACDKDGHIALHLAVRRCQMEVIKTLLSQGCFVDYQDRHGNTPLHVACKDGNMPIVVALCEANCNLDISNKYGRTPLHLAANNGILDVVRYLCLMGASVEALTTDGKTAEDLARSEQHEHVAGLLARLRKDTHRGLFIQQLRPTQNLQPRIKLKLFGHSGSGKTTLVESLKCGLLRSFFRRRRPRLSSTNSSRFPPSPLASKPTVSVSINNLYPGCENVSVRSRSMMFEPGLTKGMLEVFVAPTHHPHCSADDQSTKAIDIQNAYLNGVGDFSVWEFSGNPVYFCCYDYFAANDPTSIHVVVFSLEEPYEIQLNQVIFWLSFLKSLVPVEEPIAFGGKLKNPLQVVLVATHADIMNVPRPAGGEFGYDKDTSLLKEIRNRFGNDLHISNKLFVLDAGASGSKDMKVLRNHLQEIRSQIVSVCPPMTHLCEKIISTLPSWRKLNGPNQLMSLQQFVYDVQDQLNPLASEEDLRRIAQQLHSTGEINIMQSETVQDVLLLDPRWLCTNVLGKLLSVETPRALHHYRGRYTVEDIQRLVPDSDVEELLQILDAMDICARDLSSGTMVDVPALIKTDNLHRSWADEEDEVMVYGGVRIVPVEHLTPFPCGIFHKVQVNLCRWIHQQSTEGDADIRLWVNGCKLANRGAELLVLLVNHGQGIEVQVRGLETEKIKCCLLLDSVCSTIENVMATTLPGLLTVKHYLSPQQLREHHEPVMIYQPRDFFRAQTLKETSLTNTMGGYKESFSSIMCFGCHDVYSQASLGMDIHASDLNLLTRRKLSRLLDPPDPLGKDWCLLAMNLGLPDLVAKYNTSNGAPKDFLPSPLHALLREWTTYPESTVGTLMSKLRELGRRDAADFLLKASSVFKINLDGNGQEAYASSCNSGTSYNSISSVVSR
Chain of AXL (P30530 26-894): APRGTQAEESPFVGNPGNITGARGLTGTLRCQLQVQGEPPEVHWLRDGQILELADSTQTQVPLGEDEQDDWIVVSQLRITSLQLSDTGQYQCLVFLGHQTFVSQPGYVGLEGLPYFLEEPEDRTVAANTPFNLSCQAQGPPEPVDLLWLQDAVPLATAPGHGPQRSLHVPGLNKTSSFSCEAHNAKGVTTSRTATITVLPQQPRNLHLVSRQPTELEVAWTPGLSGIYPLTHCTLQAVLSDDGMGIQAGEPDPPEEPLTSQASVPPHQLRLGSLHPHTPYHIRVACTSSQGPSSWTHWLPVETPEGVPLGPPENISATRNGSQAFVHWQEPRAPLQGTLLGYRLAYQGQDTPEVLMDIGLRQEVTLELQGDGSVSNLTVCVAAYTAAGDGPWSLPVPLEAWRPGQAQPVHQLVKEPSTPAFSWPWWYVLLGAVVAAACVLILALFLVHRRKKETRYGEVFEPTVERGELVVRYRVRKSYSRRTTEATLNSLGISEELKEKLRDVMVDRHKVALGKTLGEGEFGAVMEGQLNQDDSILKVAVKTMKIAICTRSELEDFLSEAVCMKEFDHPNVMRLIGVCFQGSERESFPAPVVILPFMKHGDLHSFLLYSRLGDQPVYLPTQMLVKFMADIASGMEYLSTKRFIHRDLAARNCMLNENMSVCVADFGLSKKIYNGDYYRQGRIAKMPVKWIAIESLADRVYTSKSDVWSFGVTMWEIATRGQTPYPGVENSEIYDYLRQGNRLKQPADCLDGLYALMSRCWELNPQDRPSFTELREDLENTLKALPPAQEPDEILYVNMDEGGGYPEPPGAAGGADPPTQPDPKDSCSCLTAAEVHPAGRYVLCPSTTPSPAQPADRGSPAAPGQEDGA
T1 sequence (P54646 whole entry): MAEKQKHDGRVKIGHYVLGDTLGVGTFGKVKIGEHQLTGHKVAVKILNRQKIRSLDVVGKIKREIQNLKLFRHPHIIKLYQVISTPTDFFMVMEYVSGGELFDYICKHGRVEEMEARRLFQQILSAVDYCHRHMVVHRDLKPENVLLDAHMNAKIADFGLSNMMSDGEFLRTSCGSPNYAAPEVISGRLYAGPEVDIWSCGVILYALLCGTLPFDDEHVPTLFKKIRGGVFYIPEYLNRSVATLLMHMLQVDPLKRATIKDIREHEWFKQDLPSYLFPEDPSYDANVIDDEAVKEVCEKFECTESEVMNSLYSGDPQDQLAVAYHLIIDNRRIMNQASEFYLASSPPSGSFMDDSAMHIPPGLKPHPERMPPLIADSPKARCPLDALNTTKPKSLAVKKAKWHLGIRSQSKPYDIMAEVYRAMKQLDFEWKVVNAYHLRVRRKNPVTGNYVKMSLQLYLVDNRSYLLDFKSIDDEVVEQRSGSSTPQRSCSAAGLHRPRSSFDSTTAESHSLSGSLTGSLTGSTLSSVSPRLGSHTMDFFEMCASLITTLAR
Chain of NUAK1/ARK5 (O60285 whole entry): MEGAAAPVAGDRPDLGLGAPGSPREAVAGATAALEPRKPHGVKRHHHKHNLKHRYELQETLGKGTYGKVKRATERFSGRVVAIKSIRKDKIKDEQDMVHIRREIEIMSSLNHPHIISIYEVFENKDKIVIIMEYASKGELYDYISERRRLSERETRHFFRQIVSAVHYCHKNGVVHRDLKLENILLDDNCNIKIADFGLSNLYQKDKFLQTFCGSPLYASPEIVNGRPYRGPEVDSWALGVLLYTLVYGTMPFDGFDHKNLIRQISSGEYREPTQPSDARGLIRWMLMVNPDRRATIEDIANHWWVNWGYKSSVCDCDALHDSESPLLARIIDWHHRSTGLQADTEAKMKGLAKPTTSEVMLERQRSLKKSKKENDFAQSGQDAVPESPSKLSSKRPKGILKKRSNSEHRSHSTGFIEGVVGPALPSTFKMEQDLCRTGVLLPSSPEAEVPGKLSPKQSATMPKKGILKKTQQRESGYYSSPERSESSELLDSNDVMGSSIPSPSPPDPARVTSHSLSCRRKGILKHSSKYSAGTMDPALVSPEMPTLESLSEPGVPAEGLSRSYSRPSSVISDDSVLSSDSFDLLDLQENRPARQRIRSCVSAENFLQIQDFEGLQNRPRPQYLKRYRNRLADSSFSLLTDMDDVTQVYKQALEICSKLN
Chain of SGK3 (Q96BR1 whole entry): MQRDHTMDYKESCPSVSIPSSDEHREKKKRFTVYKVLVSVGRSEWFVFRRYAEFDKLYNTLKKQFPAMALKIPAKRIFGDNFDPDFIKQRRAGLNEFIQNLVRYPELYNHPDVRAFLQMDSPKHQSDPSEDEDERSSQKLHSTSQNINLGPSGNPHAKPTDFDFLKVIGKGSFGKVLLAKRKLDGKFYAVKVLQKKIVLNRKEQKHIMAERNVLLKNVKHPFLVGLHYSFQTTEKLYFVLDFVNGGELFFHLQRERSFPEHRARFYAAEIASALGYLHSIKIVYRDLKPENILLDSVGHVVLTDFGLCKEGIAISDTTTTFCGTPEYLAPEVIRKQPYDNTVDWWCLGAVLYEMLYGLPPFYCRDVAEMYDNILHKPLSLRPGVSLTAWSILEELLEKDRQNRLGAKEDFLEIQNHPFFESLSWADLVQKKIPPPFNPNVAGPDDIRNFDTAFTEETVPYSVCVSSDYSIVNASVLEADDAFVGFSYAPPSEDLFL
Chain of PIM2 (Q9P1W9 whole entry): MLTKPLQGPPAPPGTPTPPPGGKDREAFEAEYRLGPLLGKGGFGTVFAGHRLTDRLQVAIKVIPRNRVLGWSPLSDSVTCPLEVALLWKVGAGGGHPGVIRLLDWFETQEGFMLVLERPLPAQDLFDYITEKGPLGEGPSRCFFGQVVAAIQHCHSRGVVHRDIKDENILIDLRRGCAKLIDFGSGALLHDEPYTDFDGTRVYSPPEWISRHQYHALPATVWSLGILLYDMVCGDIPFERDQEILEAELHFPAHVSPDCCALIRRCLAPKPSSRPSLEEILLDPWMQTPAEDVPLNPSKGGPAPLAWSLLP
Chain of PHKG1 (Q16816 whole entry): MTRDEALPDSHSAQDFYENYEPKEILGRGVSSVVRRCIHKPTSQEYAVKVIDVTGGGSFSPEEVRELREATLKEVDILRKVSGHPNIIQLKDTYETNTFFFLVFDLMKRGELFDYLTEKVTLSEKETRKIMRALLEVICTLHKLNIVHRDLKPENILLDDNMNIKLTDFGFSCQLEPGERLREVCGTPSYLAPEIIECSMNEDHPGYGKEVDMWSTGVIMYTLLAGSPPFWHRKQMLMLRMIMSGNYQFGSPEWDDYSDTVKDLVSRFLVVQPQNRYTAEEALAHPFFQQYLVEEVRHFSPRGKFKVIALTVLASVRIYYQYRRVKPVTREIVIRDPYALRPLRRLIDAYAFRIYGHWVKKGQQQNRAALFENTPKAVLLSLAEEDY

COc1ccc2[nH]c3c4[nH]c5ccc(OC)cc5c4c4c(c3c2c1)C(=O)NC4=O [GW296115]
TSA ΔTm at 10 μM (°C) (PIM2): 9.8 °C
inhibition at 1 µM (NUAK1/ARK5): 85%
inhibition at 1 µM (SGK3): 86%
inhibition at 1 µM (AXL): 75%
inhibition at 1 µM (PHKG1): 82%
inhibition at 1 µM (DAPK1): 78%
BRSK2-induced phosphorylation of ULK1 S317 [1, 2]: decreased dose-dependently
pP62 S351 following BRSK2 overexpression [1, 2]: dose dependently downregulated
BRSK2-induced AMPK substrate phosphorylation (phospho-S/T AMPK substrate antibody) ([1]; HEK293T overexpressing wild-type BRSK2, 2.5 μM for 2 or 6 h): ablated
phosphorylation of BRSK2 at T174 ([1]; HEK293T overexpressing wild-type or K48A BRSK2): hyper-phosphorylated
phosphorylation at the LKB1 target site (T172) on AMPK ([1]; HEK293T, 2.5 μM for 2 or 6 h): did not inhibit
inhibition at 1 µM (PRKAA2): 20%
